According to patent US7786141B2 (Vertex Pharmaceuticals Incorporated, priority 2004, dated 2010):
Read-outs that look alike come from different tables or passages of the source.

Columns and labels:
M4 muscarinic receptor = biological target: T1, M4 muscarinic receptor (Homo sapiens, UniProt P08173); assay: Functional mobilization of intracellular calcium (FLIPR) in M4-CHO cells; format: cell-based
T1 construct: expressed in transfected cells; host or cells: CHO (M4-CHO)
T1 sequence (P08173 1-479): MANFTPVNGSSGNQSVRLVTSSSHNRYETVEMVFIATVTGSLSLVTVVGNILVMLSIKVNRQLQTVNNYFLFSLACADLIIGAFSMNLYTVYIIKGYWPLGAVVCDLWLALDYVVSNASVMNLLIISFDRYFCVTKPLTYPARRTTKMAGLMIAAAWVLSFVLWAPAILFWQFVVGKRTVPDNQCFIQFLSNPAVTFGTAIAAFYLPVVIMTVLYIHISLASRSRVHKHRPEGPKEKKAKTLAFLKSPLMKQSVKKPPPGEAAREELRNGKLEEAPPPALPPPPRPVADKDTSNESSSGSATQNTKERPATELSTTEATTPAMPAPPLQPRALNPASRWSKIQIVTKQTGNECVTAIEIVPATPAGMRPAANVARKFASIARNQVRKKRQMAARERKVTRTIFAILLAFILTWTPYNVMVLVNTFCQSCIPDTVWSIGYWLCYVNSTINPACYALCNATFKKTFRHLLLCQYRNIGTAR
Summary of the method: (§1)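 FLIPR Ca2+ read, ex 488/em 540 nm, 60 s. Recombinant CHO lines (M1 or M4), dye-loaded Fluo-3 AM 60-90 min at 37° C, probenecid 1 mM, pH 7.4. Agonist: compound alone; inhibition: 15 min compound pre-incubation, then carbachol at EC80 for that subtype.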

M1 muscarinic receptor = biological target: T2, M1 muscarinic receptor (Homo sapiens, UniProt P11229); assay: Functional mobilization of intracellular calcium (FLIPR) in M1-CHO cells; format: cell-based
T2 construct: expressed in transfected cells; host or cells: CHO (M1-CHO)
T2 sequence (P11229 1-460): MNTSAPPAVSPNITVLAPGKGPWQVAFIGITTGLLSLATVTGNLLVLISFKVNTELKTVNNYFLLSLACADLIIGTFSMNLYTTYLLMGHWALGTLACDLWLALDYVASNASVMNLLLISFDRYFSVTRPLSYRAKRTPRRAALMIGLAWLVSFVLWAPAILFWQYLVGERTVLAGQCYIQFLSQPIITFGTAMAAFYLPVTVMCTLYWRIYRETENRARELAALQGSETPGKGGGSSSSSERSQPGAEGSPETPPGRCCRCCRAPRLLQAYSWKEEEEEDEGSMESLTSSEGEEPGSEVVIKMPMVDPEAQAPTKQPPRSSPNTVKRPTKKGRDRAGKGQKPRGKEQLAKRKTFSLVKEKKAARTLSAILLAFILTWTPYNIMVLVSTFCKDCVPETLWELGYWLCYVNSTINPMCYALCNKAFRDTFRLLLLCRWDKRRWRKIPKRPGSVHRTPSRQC
Summary of the method: as §1

[1] = M4 receptor, calcium mobilization
[2] = M4 receptor, calcium mobilization, read-out: M4 Efficacy
[3] = M1 receptor, calcium mobilization
[4] = M1 receptor, calcium mobilization, read-out: M1 Efficacy
[5] = Table 4, 100% efficacy is the maximum response obtained with the Carbachol control
[6] = Table 4, modulating M4 receptor
[7] = Table 4, modulating M1 receptor
[8] = Table 4, M4 receptor, calcium mobilization (FLIPR)
[9] = Table 4, M1 receptor, calcium mobilization (FLIPR)
[10] = M4-CHO cells, calcium mobilization (FLIPR)
[11] = M4-CHO cells, calcium mobilization (FLIPR), read-out: M4 Efficacy
[12] = M1-CHO cells, calcium mobilization (FLIPR)
[13] = M1-CHO cells, calcium mobilization (FLIPR), read-out: M1 Efficacy

Row | SMILES | M4 Activity (M4 muscarinic receptor; [1]) | Emax (M4 muscarinic receptor; [2]) | M1 Activity (M1 muscarinic receptor; [3]) | Emax (M1 muscarinic receptor; [4]) | Emax (M4 muscarinic receptor; [5]) | Emax (M1 muscarinic receptor; [5]) | M4 Activity (M4 muscarinic receptor; [8]) | M1 Activity (M1 muscarinic receptor; [9]) | other results
1 | CCOC(=O)N1CCC(N2CCC3(CC2)CN(C(=O)c2ccccc2C)c2ccc(F)cc23)CC1 [compound 53] | xx (activity was measured to be between 0.1 μM and 1.0 μM) | 65 to 85% | xx (activity was measured to be between 0.1 μM and 1.0 μM) | < 65% |  |  |  |  | 
2 | O=C(N[C@H]1CC2(CCN(CC3CCCCC3)CC2)c2ccccc21)C1CCCC1 [compound 448] |  |  |  |  | < 25% | < 25% |  |  | M4 Activity (M4 muscarinic receptor; [6]): xxx (activity was measured to be less than 2.0 μM); M1 Activity (M1 muscarinic receptor; [7]): x (activity was measured to be greater than 5.0 μM)
3 | CC(=O)NC1CC2(CCN(C3CCCC3)CC2)c2ccccc21 (stereo not shown) [compound 922] |  |  |  |  | 25 to 100% | 25 to 100% | x (activity was measured to be greater than 5.0 μM) | x (activity was measured to be greater than 5.0 μM) | 
4 | CC(=O)N1CC2(CCN(C3CCN(C(=O)OC(C)C)CC3)CC2)c2ccccc21 [compound 440] |  |  |  |  | 25 to 100% | 25 to 100% |  |  | M4 Activity (M4 muscarinic receptor; [6]): xxx (activity was measured to be less than 2.0 μM); M1 Activity (M1 muscarinic receptor; [7]): xxx (activity was measured to be less than 2.0 μM)
5 | CCOC(=O)N1CCC(C)(CN2CCC3(CC2)C[C@H](NC(C)=O)c2ccccc23)CC1 [compound 315] | x (activity was measured to be greater than 1.0 μM) | < 65% | x (activity was measured to be greater than 1.0 μM) | < 65% |  |  |  |  | 
6 | O=C1CCCN1[C@H]1CCC2(CCN(C3CCCCCC3)CC2)c2ccccc21 [compound 945] |  |  |  |  | 25 to 100% | 25 to 100% | xxx (activity was measured to be less than 2.0 μM) | xxx (activity was measured to be less than 2.0 μM) | 
7 | CCOC(=O)N1C2CCC1CC(N1CCC3(CC1)CN(C(C)=O)c1c(F)cc(F)cc13)C2 (stereo not shown) [compound 897] |  |  |  |  | 25 to 100% | 25 to 100% | xxx (activity was measured to be less than 2.0 μM) | xxx (activity was measured to be less than 2.0 μM) | 
8 | CC(=O)N1CC2(CCN(C3CC4CCC(C3)N4C(=O)OCC3CC3)CC2)c2ccccc21 (stereo not shown) [compound 439] |  |  |  |  | 25 to 100% | 25 to 100% |  |  | M4 Activity (M4 muscarinic receptor; [6]): xxx (activity was measured to be less than 2.0 μM); M1 Activity (M1 muscarinic receptor; [7]): xxx (activity was measured to be less than 2.0 μM)
9 | Fc1ccc2c(c1)C1(CCN(C[C@H]3C[C@H]4CC[C@H]3O4)CC1)CN2 [compound 300] | x (activity was measured to be greater than 1.0 μM) | < 65% | xx (activity was measured to be between 0.1 μM and 1.0 μM) | 65 to 85% |  |  |  |  | 
10 | CN(C)C(=O)N1CC2(CCN(C[C@H]3CCN(C(=O)OCC(F)F)C3)CC2)c2cc(F)ccc21 [compound 848] |  |  |  |  | > 100% | 25 to 100% | xxx (activity was measured to be less than 2.0 μM) | xxx (activity was measured to be less than 2.0 μM) | 
11 | CCC#CCOC(=O)N1CC[C@@H](CN2CCC3(CC2)CN(C(=O)N(C)C)c2ccc(F)cc23)C1 [compound 645] |  |  |  |  | 25 to 100% | 25 to 100% |  |  | M4 Activity (M4 muscarinic receptor; [6]): xxx (activity was measured to be less than 2.0 μM); M1 Activity (M1 muscarinic receptor; [7]): xxx (activity was measured to be less than 2.0 μM)
12 | Cc1ccc2c(c1)C1(CCN(C3CC4CCC3C4)CC1)CN2C(=O)c1ccncc1 (stereo not shown) [compound 840] |  |  |  |  | < 25% | < 25% | x (activity was measured to be greater than 5.0 μM) | x (activity was measured to be greater than 5.0 μM) | 
13 | O=C(O[C@@H]1CCOC1)N1C2CCC1CC(N1CCC3(CC1)COc1ccc(F)cc13)C2 (stereo partly shown) [compound 338] | x (activity was measured to be greater than 1.0 μM) | < 65% | x (activity was measured to be greater than 1.0 μM) | < 65% |  |  |  |  | 
14 | CCOC(=O)N1C2CCC1CC(N1CCC3(CC1)CN(C(=O)OC1CCC1)c1ccc(F)cc13)C2 (stereo not shown) [compound 409] |  |  |  |  |  |  |  |  | EC50 (M4 muscarinic receptor; [10]): < 100 nM; Emax (M4 muscarinic receptor; [11]): > 85%; EC50 (M1 muscarinic receptor; [12]): < 100 nM; Emax (M1 muscarinic receptor; [13]): > 85%
15 | CCOC(=O)N1C2CCC1CC(N1CCC3(CC1)COc1ccc(Cl)cc13)C2 (stereo not shown) [compound 99] | x (activity was measured to be greater than 1.0 μM) | < 65% | xxx (activity was measured to be less than 0.1 μM) | < 65% |  |  |  |  | 
16 | CC(=O)NC1CC2(CCN(C3CCN(C(=O)c4cccc(C(F)(F)F)c4)CC3)CC2)c2ccccc21 (stereo not shown) [compound 978] |  |  |  |  | < 25% | < 25% | x (activity was measured to be greater than 5.0 μM) | x (activity was measured to be greater than 5.0 μM) | 
17 | CCOC(=O)N1CCC(N2CCCC3(CC2)CN(C(C)=O)c2ccc(F)cc23)C1 (stereo not shown) [compound 473] |  |  |  |  | < 25% | 25 to 100% |  |  | M4 Activity (M4 muscarinic receptor; [6]): x (activity was measured to be greater than 5.0 μM); M1 Activity (M1 muscarinic receptor; [7]): x (activity was measured to be greater than 5.0 μM)
18 | CC(=O)N1CC2(CCN(C3CCN(c4nccs4)CC3)CC2)c2cc(F)ccc21 [compound 976] |  |  |  |  | 25 to 100% | 25 to 100% | xxx (activity was measured to be less than 2.0 μM) | xxx (activity was measured to be less than 2.0 μM) | 
19 | O=C(N[C@H]1CC2(CCN(CCC3CC4CC[C@@H]3C4)CC2)c2ccccc21)c1ccoc1 (stereo partly shown) [compound 798] |  |  |  |  | < 25% | < 25% |  |  | M4 Activity (M4 muscarinic receptor; [6]): x (activity was measured to be greater than 5.0 μM); M1 Activity (M1 muscarinic receptor; [7]): x (activity was measured to be greater than 5.0 μM)
20 | CC(=O)NC1CC2(CCN(C3CC4CCC3C4)CC2)c2ccccc21 (stereo not shown) [compound 291] | x (activity was measured to be greater than 1.0 μM) | 65 to 85% | xx (activity was measured to be between 0.1 μM and 1.0 μM) | 65 to 85% |  |  |  |  | 
21 | Cc1cc(C(=O)N2CCC(N3CCC4(CC3)CN(C(=O)N(C)C)c3ccc(F)cc34)CC2)nn1C [compound 898] |  |  |  |  | < 25% | < 25% | x (activity was measured to be greater than 5.0 μM) | x (activity was measured to be greater than 5.0 μM) | 
22 | CC(=O)N[C@H]1CC2(CCN(C3CCCCCCC3)CC2)c2ccccc21 [compound 261] | x (activity was measured to be greater than 1.0 μM) | < 65% | xx (activity was measured to be between 0.1 μM and 1.0 μM) | < 65% |  |  |  |  | 
23 | O=C1Nc2ccccc2C12CCN(C1CC3CCC1C3)CC2 (stereo not shown) [compound 259] | x (activity was measured to be greater than 1.0 μM) | < 65% | x (activity was measured to be greater than 1.0 μM) | 65 to 85% |  |  |  |  | 
24 | CC(=O)N1CC2(CCN(CC3CCN(C(=O)OC(C)C)CC3)CC2)c2cc(C)ccc21 [compound 404] |  |  |  |  |  |  |  |  | EC50 (M4 muscarinic receptor; [10]): > 1000 nM; Emax (M4 muscarinic receptor; [11]): < 65%; EC50 (M1 muscarinic receptor; [12]): 100 to 1000 nM; Emax (M1 muscarinic receptor; [13]): < 65%
25 | CCOC(=O)N1C2CCC1CC(N1CCC3(CC1)CN(C(=O)Oc1ccc(F)cc1)c1ccc(F)cc13)C2 (stereo not shown) [compound 298] | x (activity was measured to be greater than 1.0 μM) | 65 to 85% | x (activity was measured to be greater than 1.0 μM) | < 65% |  |  |  |  | 
